PubChem BioAssay AID2060330 (Molecular Pharmacology Branch, DTP, NCI, 2025)

System: LG0703-F948-PDC spheroids with HUVEC/MSC, viability
Assay: Anticancer human tumor LG0703-F948-PDC patient-derived lung adenocarcinoma cell line growth inhibition [IpAb]
Settings: for IC50: curve of first compound; for viability, T/C: stronger effect = lower value; active means viability on the fitted dose curve at most 10% of control; inactive means the rest
Summary of the method: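 Multi-cell spheroids of 60% tumour cells, 25% HUVEC and 15% MSC in ultra-low-attachment U-bottom wells, treated with agents combined with ipatasertib or abemaciclib. Half-log ranges top out near clinical Cmax, or 10 microM when Cmax is unknown.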

[1] = second compound 0.1 µM, first compound 0.0316 µM
[2] = second compound 0.1 µM, first compound 0.1 µM
[3] = second compound 0.1 µM, first compound 0.316 µM
[4] = second compound 0.1 µM, first compound 1 µM
[5] = second compound 0.1 µM, first compound 3.16 µM
[6] = second compound 0.1 µM, first compound 10 µM
[7] = second compound 0.316 µM, first compound 0.0316 µM
[8] = second compound 0.316 µM, first compound 0.1 µM
[9] = second compound 0.316 µM, first compound 0.316 µM
[10] = second compound 0.316 µM, first compound 1 µM
[11] = second compound 0.316 µM, first compound 3.16 µM
[12] = second compound 0.316 µM, first compound 10 µM
[13] = second compound 1 µM, first compound 0.0316 µM
[14] = second compound 1 µM, first compound 0.1 µM
[15] = second compound 1 µM, first compound 0.316 µM
[16] = second compound 1 µM, first compound 1 µM
[17] = second compound 1 µM, first compound 3.16 µM
[18] = second compound 1 µM, first compound 10 µM
[19] = second compound 3.16 µM, first compound 0.0316 µM
[20] = second compound 3.16 µM, first compound 0.1 µM
[21] = second compound 3.16 µM, first compound 0.316 µM
[22] = second compound 3.16 µM, first compound 1 µM
[23] = second compound 3.16 µM, first compound 3.16 µM
[24] = second compound 3.16 µM, first compound 10 µM
[25] = second compound 10 µM, first compound 0.0316 µM
[26] = second compound 10 µM, first compound 0.1 µM
[27] = second compound 10 µM, first compound 0.316 µM
[28] = second compound 10 µM, first compound 1 µM
[29] = second compound 10 µM, first compound 3.16 µM
[30] = second compound 10 µM, first compound 10 µM
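Further: spheroids exposed to compounds for seven days before readout.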
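Wherever viability, T/C is given: T/C percent relative to DMSO vehicle wells set as 100% viability.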

C=CC(=O)N1CCN(c2nc(=O)n(-c3c(C)ccnc3C(C)C)c3nc(-c4c(O)cccc4F)c(F)cc23)C(C)C1 (stereo not given) + CC(C)NCC(C(=O)N1CCN(c2ncnc3c2C(C)CC3O)CC1)c1ccc(Cl)cc1
> 10000 nM: IC50 (second compound 0.1 µM) | IC50 (second compound 0.316 µM)
3340 nM: IC50 (second compound 1 µM)
< 31.6 nM: IC50 (second compound 3.16 µM) | IC50 (second compound 10 µM)
inactive: viability, T/C [1] 87.5% | viability, T/C [2] 86.1% | viability, T/C [3] 92.7% | viability, T/C [4] 91.1% | viability, T/C [5] 90.6% | viability, T/C [6] 54.3% | viability, T/C [7] 64.5% | viability, T/C [8] 67.1% | viability, T/C [9] 62.6% | viability, T/C [10] 71.6% | viability, T/C [11] 73.5% | viability, T/C [12] 46.4% | viability, T/C [13] 54.9% | viability, T/C [14] 56.5% | viability, T/C [15] 58% | viability, T/C [16] 54.4% | viability, T/C [17] 50.8% | viability, T/C [18] 34.5% | viability, T/C [19] 44.5% | viability, T/C [20] 52.9% | viability, T/C [21] 48.5% | viability, T/C [22] 47% | viability, T/C [23] 45.6% | viability, T/C [24] 30.7% | viability, T/C [25] 40% | viability, T/C [26] 39% | viability, T/C [27] 40.9% | viability, T/C [28] 42.7% | viability, T/C [29] 38.1% | viability, T/C [30] 22.5%

CC(C)(C)c1cnc(CSc2cnc(NC(=O)C3CCNCC3)s2)o1 + CC(C)NCC(C(=O)N1CCN(c2ncnc3c2C(C)CC3O)CC1)c1ccc(Cl)cc1
< 9.49 nM: IC50 (second compound 3.16 µM) | IC50 (second compound 10 µM)
36.9 nM: IC50 (second compound 0.316 µM)
74.3 nM: IC50 (second compound 0.1 µM)
15.5 nM: IC50 (second compound 1 µM)
active: viability, T/C (second compound 0.1 µM, first compound 0.3 µM) 0.48% | viability, T/C (second compound 0.1 µM, first compound 0.949 µM) 0.41% | viability, T/C (second compound 0.1 µM, first compound 3 µM) 0.23% | viability, T/C (second compound 0.316 µM, first compound 0.3 µM) 0.34% | viability, T/C (second compound 0.316 µM, first compound 0.949 µM) 0.3% | viability, T/C (second compound 0.316 µM, first compound 3 µM) 0.29% | viability, T/C (second compound 1 µM, first compound 0.3 µM) 0.43% | viability, T/C (second compound 1 µM, first compound 0.949 µM) 0.34% | viability, T/C (second compound 1 µM, first compound 3 µM) 0.31% | viability, T/C (second compound 3.16 µM, first compound 0.3 µM) 0.55% | viability, T/C (second compound 3.16 µM, first compound 0.949 µM) 1.3% | viability, T/C (second compound 3.16 µM, first compound 3 µM) 0.69% | viability, T/C (second compound 10 µM, first compound 0.3 µM) 1.21% | viability, T/C (second compound 10 µM, first compound 0.949 µM) 0.81% | viability, T/C (second compound 10 µM, first compound 3 µM) 0.34%
inactive: viability, T/C (second compound 0.1 µM, first compound 0.00949 µM) 78.5% | viability, T/C (second compound 0.1 µM, first compound 0.03 µM) 74% | viability, T/C (second compound 0.1 µM, first compound 0.0949 µM) 43.3% | viability, T/C (second compound 0.316 µM, first compound 0.00949 µM) 61.5% | viability, T/C (second compound 0.316 µM, first compound 0.03 µM) 51.2% | viability, T/C (second compound 0.316 µM, first compound 0.0949 µM) 30.8% | viability, T/C (second compound 1 µM, first compound 0.00949 µM) 52% | viability, T/C (second compound 1 µM, first compound 0.03 µM) 47.5% | viability, T/C (second compound 1 µM, first compound 0.0949 µM) 24.2% | viability, T/C (second compound 3.16 µM, first compound 0.00949 µM) 44.7% | viability, T/C (second compound 3.16 µM, first compound 0.03 µM) 37.4% | viability, T/C (second compound 3.16 µM, first compound 0.0949 µM) 15.4% | viability, T/C (second compound 10 µM, first compound 0.00949 µM) 35.1% | viability, T/C (second compound 10 µM, first compound 0.03 µM) 31.5% | viability, T/C (second compound 10 µM, first compound 0.0949 µM) 28.2%

Cn1ncc(Cl)c1-c1cc(C(=O)NC(CN)Cc2cccc(F)c2)sc1Cl (stereo not given) + CC(C)NCC(C(=O)N1CCN(c2ncnc3c2C(C)CC3O)CC1)c1ccc(Cl)cc1
714 nM: IC50 (second compound 0.1 µM)
522 nM: IC50 (second compound 1 µM)
inactive: viability, T/C [1] 75.9% | viability, T/C [2] 75.1% | viability, T/C [3] 53.7% | viability, T/C [4] 53.4% | viability, T/C [5] 15.4% | viability, T/C [7] 60% | viability, T/C [8] 57.1% | viability, T/C [9] 53.8% | viability, T/C [10] 50.2% | viability, T/C [11] 18.7% | viability, T/C [13] 54.7% | viability, T/C [14] 50.5% | viability, T/C [15] 49.4% | viability, T/C [16] 48.1% | viability, T/C [17] 11% | viability, T/C [19] 41.2% | viability, T/C [20] 44.9% | viability, T/C [21] 43.7% | viability, T/C [22] 40.5% | viability, T/C [23] 18.9% | viability, T/C [25] 41.8% | viability, T/C [26] 42.1% | viability, T/C [27] 35% | viability, T/C [28] 39.3% | viability, T/C [29] 9.68%
active: viability, T/C [6] 0.11% | viability, T/C [12] 0.1% | viability, T/C [18] 0.1% | viability, T/C [24] 0.1% | viability, T/C [30] 0.15%
925 nM: IC50 (second compound 0.316 µM)
< 31.6 nM: IC50 (second compound 3.16 µM) | IC50 (second compound 10 µM)

Cn1nccc1Nc1nccc(-c2ccn(C(CO)c3ccc(Cl)c(F)c3)c(=O)c2)n1 (stereo not given) + CC(C)NCC(C(=O)N1CCN(c2ncnc3c2C(C)CC3O)CC1)c1ccc(Cl)cc1
502 nM: IC50 (second compound 0.1 µM)
active: viability, T/C [23] 9.49% | viability, T/C [24] 5.88% | viability, T/C [29] 4.16% | viability, T/C [30] 3.23%
97 nM: IC50 (second compound 0.316 µM)
< 31.6 nM: IC50 (second compound 1 µM) | IC50 (second compound 3.16 µM) | IC50 (second compound 10 µM)
inactive: viability, T/C [1] 67.3% | viability, T/C [2] 66.3% | viability, T/C [3] 49.8% | viability, T/C [4] 39.7% | viability, T/C [5] 50.3% | viability, T/C [6] 37.6% | viability, T/C [7] 64.7% | viability, T/C [8] 49.4% | viability, T/C [9] 36.5% | viability, T/C [10] 28% | viability, T/C [11] 32.5% | viability, T/C [12] 27.1% | viability, T/C [13] 45% | viability, T/C [14] 39.8% | viability, T/C [15] 21.7% | viability, T/C [16] 15.3% | viability, T/C [17] 12.3% | viability, T/C [18] 16% | viability, T/C [19] 38.2% | viability, T/C [20] 33% | viability, T/C [21] 16.4% | viability, T/C [22] 9.61% | viability, T/C [25] 32.5% | viability, T/C [26] 22.6% | viability, T/C [27] 29.5% | viability, T/C [28] 6.93%

Cn1ncnc1[C@H]1c2n[nH]c(=O)c3cc(F)cc(c23)N[C@@H]1c1ccc(F)cc1 + CC(C)NCC(C(=O)N1CCN(c2ncnc3c2C(C)CC3O)CC1)c1ccc(Cl)cc1
> 100 nM: IC50 (second compound 0.1 µM) | IC50 (second compound 0.316 µM) | IC50 (second compound 1 µM)
inactive: viability, T/C (second compound 0.1 µM, first compound 0.000316 µM) 91.9% | viability, T/C (second compound 0.1 µM, first compound 0.001 µM) 79.1% | viability, T/C (second compound 0.1 µM, first compound 0.00316 µM) 79.2% | viability, T/C (second compound 0.1 µM, first compound 0.01 µM) 91.9% | viability, T/C [1] 68.6% | viability, T/C [2] 73.4% | viability, T/C (second compound 0.316 µM, first compound 0.000316 µM) 73.5% | viability, T/C (second compound 0.316 µM, first compound 0.001 µM) 67.9% | viability, T/C (second compound 0.316 µM, first compound 0.00316 µM) 59.8% | viability, T/C (second compound 0.316 µM, first compound 0.01 µM) 65.7% | viability, T/C [7] 63.6% | viability, T/C [8] 58.3% | viability, T/C (second compound 1 µM, first compound 0.000316 µM) 60.1% | viability, T/C (second compound 1 µM, first compound 0.001 µM) 51.4% | viability, T/C (second compound 1 µM, first compound 0.00316 µM) 51% | viability, T/C (second compound 1 µM, first compound 0.01 µM) 53.5% | viability, T/C [13] 60.3% | viability, T/C [14] 51.9% | viability, T/C (second compound 3.16 µM, first compound 0.000316 µM) 47% | viability, T/C (second compound 3.16 µM, first compound 0.001 µM) 40.3% | viability, T/C (second compound 3.16 µM, first compound 0.00316 µM) 45.9% | viability, T/C (second compound 3.16 µM, first compound 0.01 µM) 42.9% | viability, T/C [19] 49.5% | viability, T/C [20] 46.1% | viability, T/C (second compound 10 µM, first compound 0.000316 µM) 42.8% | viability, T/C (second compound 10 µM, first compound 0.001 µM) 44.4% | viability, T/C (second compound 10 µM, first compound 0.00316 µM) 37.7% | viability, T/C (second compound 10 µM, first compound 0.01 µM) 45.9% | viability, T/C [25] 38% | viability, T/C [26] 37.2%
< 0.316 nM: IC50 (second compound 3.16 µM) | IC50 (second compound 10 µM)
